Results on 4 compounds are retold here after US20090048449A1, “RIMONABANT MONOHYDRATE, PROCESS FOR THE PREPARATION THEREOF AND PHARMACEUTICAL COMPOSITIONS CONTAINING SAME” (SANOFI-AVENTIS, priority 2006, published 2009).

Format in all cases: physicochemical
Series [1] is described as follows: Flowability of the crystal forms by flowability / compressibility / Carr index. Conditions: for Carr index: tap and bulk densities in graduated cylinder, data at 10 and 1250 taps, <=20% good powder flow, >21% passable to very difficult. As to the method:
The flowability of the rimonabant monohydrate crystal form was measured and compared to that of the rimonabant crystal form II. The flowability of the crystal forms is measured by the flowability index or compressibility index or Carr index as described in R. L. Carr: Evaluation of flow properties of solids, Chem. Eng., 1965, 163-168 and also in the European Pharmacopeia.
The flowability index is calculated according to the following equation: IC=100×(ρt−ρb)/ρt where ρt is the tap density and ρb is the bulk density. This index is considered to be good if it is less than 20.
The densities are determined experimentally by packing the product into a graduated cylinder according to the procedure described in the European Pharmacopeia. The densities are determined after 10, 500, 1250 and 2500 taps. The Carr index is determined from the data measured at 10 and 1250 taps.
A Carr index less than or equal to 20% is considered as corresponding to a good powder flow, whereas a Carr index greater than 21% is considered as corresponding to a passable, even difficult or very difficult, powder flow.

A short description of series [2]: Filterability: specific resistance of the filter cake. Conditions: filtering crystals from the solution in which they were formed; comparison with form I and form II. The source says: The improvement in filterability allows the filtration step to be shortened and leads to a significant improvement in the texture of the filter cake which is characterized by a low moisture content of the powder before drying and a low degree of residual solvent before drying. The resulting powder after drying has improved physical properties, especially in terms of flowability and therefore of handleability.

Series [3] is described as follows: Water vapor sorption/desorption at 25° C. (SGA100 analyzer). Conditions: sorption cycle 0-100% RH at 25° C. after degassing the monohydrate at 80° C. for 3 hours (water of hydration lost). The protocol:
Analysis of water vapor sorption/desorption measurements was carried out on the rimonabant monohydrate crystal form on a SGA100 analyzer sold by VTI (USA). It was operated between 0% and 100% relative humidity at 25° C. after degassing the monohydrate form at 80° C. for 3 hours. The rimonabant monohydrate loses its water of hydration molecule during drying at 80° C. During the water vapor sorption cycle, the conversion of the rimonabant into rimonabant monohydrate occurs starting from 40% relative humidity. The sorption/desorption isotherm is represented in FIG. 4.

Where only a bound is given, the exact number is not on record here.

For `Cc1c(C(=O)NN2CCCCC2)nn(-c2ccc(Cl)cc2Cl)c1-c1ccc(Cl)cc1` [rimonabant crystal form I, N-piperidino-5-(4-chlorophenyl)-1-(2,4-dichlorophenyl)-4-methylpyrazole-3-carboxamide], in series [1] (Carr index measured, only class in words printed), the “Flowability corresponding to the Carr index (in words)” value is given as “very difficult flowability”. Consider `Cc1c(C(=O)NN2CCCCC2)nn(-c2ccc(Cl)cc2Cl)c1-c1ccc(Cl)cc1` [rimonabant crystal form II, N-piperidino-5-(4-chlorophenyl)-1-(2,4-dichlorophenyl)-4-methylpyrazole-3-carboxamide], for which, in series [1], the Carr index result is “around 38%”. As to `Cc1c(C(=O)NN2CCCCC2)nn(-c2ccc(Cl)cc2Cl)c1-c1ccc(Cl)cc1` [rimonabant monohydrate crystal form], the Carr index in series [1] stood at 20%. Also, the “Specific resistance of the filter cake” value in series [2] was “less than that measured for rimonabant crystal form I and crystal form II”.

As to `Cc1c(C(=O)NN2CCCCC2)nn(-c2ccc(Cl)cc2Cl)c1-c1ccc(Cl)cc1` [rimonabant, N-piperidino-5-(4-chlorophenyl)-1-(2,4-dichlorophenyl)-4-methylpyrazole-3-carboxamide], the “Relative humidity from which conversion of rimonabant into rimonabant monohydrate occurs” value in series [3] is recorded as at least 40 % relative humidity.
